Experimental data from ChEMBL document CHEMBL3885861, “Open TG-GATES”.

Species: Rattus norvegicus
Assay: Open TG-GATES - Regimen: Daily Repeat
Format: toxicity, organism-based, Sprague-Dawley
Parameters: regimen Daily Repeat, gender Male, age 6 weeks
Settings: in vivo, po, 100 mg/kg, route gavage, dose level Middle; for APTT / Bas / Eos / Fbg / Hb / Ht / Lym / MCH / MCHC / MCV / Mono / Neu / PT / Plat / RBC / Ret / WBC: tissue Blood; for KIDNEY_L / KIDNEY_R / KIDNEY_TOTAL: tissue Kidney; for LIVER: tissue Liver; for A/G / ALP / ALT / AST / BUN / CRE / Ca / Cl / DBIL / GLC / IP / K / LDH / Na / PL / RALB / TBIL / TC / TG / TP / gamma-GTP: tissue Plasma

Compound: Cc1cccc(Nc2ccccc2C(=O)O)c1C [MEFENAMIC ACID]
- TERMINAL_BW (72 h, time 3 day): 234.2 g
- APTT (72 h, time 3 day): 18.5 s
- Bas (72 h, time 3 day): 0%
- Eos (72 h, time 3 day): 1%
- Fbg (72 h, time 3 day): 242.4 mg/dL
- Hb (72 h, time 3 day): 13.5 g/dL
- Ht (72 h, time 3 day): 38.1%
- Lym (72 h, time 3 day): 79.2%
- MCH (72 h, time 3 day): 22.1 pg
- MCHC (72 h, time 3 day): 35.4%
- MCV (72 h, time 3 day): 62.4 fL
- Mono (72 h, time 3 day): 2.6%
- Neu (72 h, time 3 day): 15.6%
- PT (72 h, time 3 day): 12.1 s
- Plat (72 h, time 3 day): 122.6 x10_4/uL
- RBC (72 h, time 3 day): 611.8 x10_4/ul
- Ret (72 h, time 3 day): 5.7%
- WBC (72 h, time 3 day): 97.2 x10_2/uL
- KIDNEY_L (72 h, time 3 day): 1 g
- KIDNEY_R (72 h, time 3 day): 1 g
- KIDNEY_TOTAL (72 h, time 3 day): 2 g
- LIVER (72 h, time 3 day): 11.2 g
- A/G (72 h, time 3 day): 1.6
- ALP (72 h, time 3 day): 1044 IU/L
- ALT (72 h, time 3 day): 38.6 IU/L
- AST (72 h, time 3 day): 65.4 IU/L
- BUN (72 h, time 3 day): 14.8 mg/dL
- CRE (72 h, time 3 day): 0.4 mg/dL
- Ca (72 h, time 3 day): 10.9 mg/dL
- Cl (72 h, time 3 day): 104 meq/L
- DBIL (72 h, time 3 day): 0.098 mg/dL
- GLC (72 h, time 3 day): 189.2 mg/dL
- IP (72 h, time 3 day): 6.9 mg/dL
- K (72 h, time 3 day): 4.2 meq/L
- LDH (72 h, time 3 day): 191.6 IU/L
- Na (72 h, time 3 day): 141.8 meq/L
- PL (72 h, time 3 day): 148 mg/dL
- RALB (72 h, time 3 day): 3.4 g/dL
- TBIL (72 h, time 3 day): 0.2 mg/dL
- TC (72 h, time 3 day): 81.6 mg/dL
- TG (72 h, time 3 day): 88.2 mg/dL
- TP (72 h, time 3 day): 5.5 g/dL
- gamma-GTP (72 h, time 3 day): 1.6 IU/L
- TERMINAL_BW ([…], time 7 day): 269.2 g
- TERMINAL_BW ([…], time 14 day): 320.1 g
- TERMINAL_BW ([…], time 28 day): 386.3 g
- APTT ([…], time 7 day): 18.5 s
- Bas ([…], time 7 day): 0%
- Eos ([…], time 7 day): 1%
- Fbg ([…], time 7 day): 230 mg/dL
- Hb ([…], time 7 day): 13.6 g/dL
- Ht ([…], time 7 day): 37.9%
- Lym ([…], time 7 day): 80.2%
- MCH ([…], time 7 day): 21.7 pg
- MCHC ([…], time 7 day): 35.9%
- MCV ([…], time 7 day): 60.6 fL
- Mono ([…], time 7 day): 2.4%
- Neu ([…], time 7 day): 14.4%
- PT ([…], time 7 day): 11.9 s
- Plat ([…], time 7 day): 121.4 x10_4/uL
- RBC ([…], time 7 day): 626.4 x10_4/ul
- Ret ([…], time 7 day): 5.4%
- WBC ([…], time 7 day): 99.8 x10_2/uL
- APTT ([…], time 14 day): 20.3 s
- Bas ([…], time 14 day): 0%
- Eos ([…], time 14 day): 0.8%
- Fbg ([…], time 14 day): 246.8 mg/dL
- Hb ([…], time 14 day): 14.4 g/dL
- Ht ([…], time 14 day): 40.6%
- Lym ([…], time 14 day): 76%
- MCH ([…], time 14 day): 21.6 pg
- MCHC ([…], time 14 day): 35.3%
- MCV ([…], time 14 day): 61.2 fL
- Mono ([…], time 14 day): 2.4%
- Neu ([…], time 14 day): 18.6%
- PT ([…], time 14 day): 12.4 s
- Plat ([…], time 14 day): 104.3 x10_4/uL
- RBC ([…], time 14 day): 664 x10_4/ul
- Ret ([…], time 14 day): 4.4%
- WBC ([…], time 14 day): 124.7 x10_2/uL
- APTT ([…], time 28 day): 19.4 s
- Bas ([…], time 28 day): 0%
- Eos ([…], time 28 day): 1.2%
- Fbg ([…], time 28 day): 261.8 mg/dL
- Hb ([…], time 28 day): 15.8 g/dL
- Ht ([…], time 28 day): 44.8%
- Lym ([…], time 28 day): 75%
- MCH ([…], time 28 day): 19.8 pg
- MCHC ([…], time 28 day): 35.3%
- MCV ([…], time 28 day): 56.3 fL
- Mono ([…], time 28 day): 2.2%
- Neu ([…], time 28 day): 20.6%
- PT ([…], time 28 day): 12.3 s
- Plat ([…], time 28 day): 98.4 x10_4/uL
- RBC ([…], time 28 day): 796.8 x10_4/ul
- Ret ([…], time 28 day): 2.3%
- WBC ([…], time 28 day): 98.3 x10_2/uL
- KIDNEY_L ([…], time 7 day): 1.1 g
- KIDNEY_R ([…], time 7 day): 1.2 g
- KIDNEY_TOTAL ([…], time 7 day): 2.2 g
- KIDNEY_L ([…], time 14 day): 1.3 g
- KIDNEY_R ([…], time 14 day): 1.4 g
- KIDNEY_TOTAL ([…], time 14 day): 2.7 g
- KIDNEY_L ([…], time 28 day): 1.4 g
- KIDNEY_R ([…], time 28 day): 1.4 g
- KIDNEY_TOTAL ([…], time 28 day): 2.8 g
- LIVER ([…], time 7 day): 12 g
- LIVER ([…], time 14 day): 14.3 g
- LIVER ([…], time 28 day): 14.9 g
- A/G ([…], time 7 day): 1.5
- ALP ([…], time 7 day): 825.2 IU/L
- ALT ([…], time 7 day): 32.8 IU/L
- AST ([…], time 7 day): 73.2 IU/L
- BUN ([…], time 7 day): 17 mg/dL
- CRE ([…], time 7 day): 0.4 mg/dL
- Ca ([…], time 7 day): 10.7 mg/dL
- Cl ([…], time 7 day): 103.2 meq/L
- DBIL ([…], time 7 day): 0.078 mg/dL
- GLC ([…], time 7 day): 219.2 mg/dL
- IP ([…], time 7 day): 6.8 mg/dL
- K ([…], time 7 day): 3.8 meq/L
- LDH ([…], time 7 day): 177.4 IU/L
- Na ([…], time 7 day): 140.2 meq/L
- PL ([…], time 7 day): 150.8 mg/dL
- RALB ([…], time 7 day): 3.4 g/dL
- TBIL ([…], time 7 day): 0.1 mg/dL
- TC ([…], time 7 day): 87.2 mg/dL
- TG ([…], time 7 day): 62.2 mg/dL
- TP ([…], time 7 day): 5.6 g/dL
- gamma-GTP ([…], time 7 day): 1.2 IU/L
- A/G ([…], time 14 day): 1.4
- ALP ([…], time 14 day): 798 IU/L
- ALT ([…], time 14 day): 39.6 IU/L
- AST ([…], time 14 day): 64.6 IU/L
- BUN ([…], time 14 day): 18.2 mg/dL
- CRE ([…], time 14 day): 0.5 mg/dL
- Ca ([…], time 14 day): 10.6 mg/dL
- Cl ([…], time 14 day): 103.4 meq/L
- DBIL ([…], time 14 day): 0.086 mg/dL
- GLC ([…], time 14 day): 208.2 mg/dL
- IP ([…], time 14 day): 7.4 mg/dL
- K ([…], time 14 day): 4 meq/L
- LDH ([…], time 14 day): 138.4 IU/L
- Na ([…], time 14 day): 140.8 meq/L
- PL ([…], time 14 day): 149 mg/dL
- RALB ([…], time 14 day): 3.3 g/dL
- TBIL ([…], time 14 day): 0.2 mg/dL
- TC ([…], time 14 day): 79 mg/dL
- TG ([…], time 14 day): 81.8 mg/dL
- TP ([…], time 14 day): 5.8 g/dL
- gamma-GTP ([…], time 14 day): 1 IU/L
- A/G ([…], time 28 day): 1.3
- ALP ([…], time 28 day): 673 IU/L
- ALT ([…], time 28 day): 35.4 IU/L
- AST ([…], time 28 day): 62.4 IU/L
- BUN ([…], time 28 day): 18 mg/dL
- CRE ([…], time 28 day): 0.5 mg/dL
- Ca ([…], time 28 day): 10.7 mg/dL
- Cl ([…], time 28 day): 104.2 meq/L
- DBIL ([…], time 28 day): 0.088 mg/dL
- GLC ([…], time 28 day): 219.4 mg/dL
- IP ([…], time 28 day): 6.7 mg/dL
- K ([…], time 28 day): 3.5 meq/L
- LDH ([…], time 28 day): 143.8 IU/L
- Na ([…], time 28 day): 141.2 meq/L
- PL ([…], time 28 day): 156.8 mg/dL
- RALB ([…], time 28 day): 3.6 g/dL
- TBIL ([…], time 28 day): 0.1 mg/dL
- TC ([…], time 28 day): 89.8 mg/dL
- TG ([…], time 28 day): 81.6 mg/dL
- TP ([…], time 28 day): 6.3 g/dL
- gamma-GTP ([…], time 28 day): 1.6 IU/L
